Data on 1 molecule can be found in publication PMC9967700, “Metabolism-Guided Optimization of Tryptophanol-Derived Isoindolinone p53 Activators” (Pharmaceuticals, 2023).

The nature of series [1]: Human liver microsomes incubations: half-life and intrinsic clearance. The series is classed as in vitro ADME. As for the experimental part: For the generation of Phase I metabolites: tested compounds, at a 10 μM concentration (1 μL of 5 mM DMSO stock solution), were incubated with HLM (1 mg protein/mL), Vivid® regenerating system (5 μL) and NADPH (1mM) in ABIC 50 mM buffer pH 7.4, for a total incubation volume of 500 μL. Incubations were run in duplicate, at 37 °C. Aliquots were collected at 0, 5, 10, 20, 30, 40, 50, 60, 75, 90, 120, 180 min and reactions were stopped by adding and ice-cold solution of reserpine (2.5 μM) in acetonitrile. Additional aliquots were taken at 0 and 120 min and subsequently treated with L-lysine (100 µM) and sodium cyanoborohydride (10 µM) or glutathione (100 µM). Following centrifugation (10,000 rpm, 15 min, RT), the clear supernatants were collected and analyzed LC-ESI-HRMS/MS. Control incubations were conducted in the same conditions: (1) using DMSO as negative control, in absence of the test drug; (2) using heat-denatured HLM (90 °C, 15 min); (3) using nevirapine, as a positive control, instead of the tested compound; and (4) in absence of NADPH co-factor.
The in vitro depletion half-lives of tested compounds t1/2 were calculated using Equation (1), assuming that testing compounds follow a first-order kinetic trend. The “slope” was determined from linear fitting of the natural logarithm of the concentration of drug remaining plotted against time:(1) t1/2=ln2/slope
The intrinsic clearance in HLM (CLint, HLM) was calculated using Equation (2):(2) CLint HLM =ln2/ t1/2 x mL incubation/mg microsomes x 45 mg microsomes/g liver x 26 g liver/Kg b.w.
For orientation: Microsomes from liver hold many membrane-bound enzymes, among them those of drug oxidation.

A short description of series [2]: In vitro reactions with bionucleophiles. The note with it: with or without enzymatic conditions (S9 rat liver incubations). How it is done:
To a solution of compound 13d in acetonitrile (1.00 eq., 10.1 mg in 400 µL, 5.04 × 10^−2 M) reduced glutathione (4.00 eq. 25.2 mg, 82.00 µmol) dissolved in 400 µL of ABIC buffer 50 mM pH 7.4 was added. The reaction mixture was incubated for 24 h at 37 °C and monitored by LC-ESI-HRMS/MS.
To a solution of compound 13k in acetonitrile (1.00 eq., 4.3 mg in 200 µL, 3.92 × 10^−2 M) reduced glutathione (4.00 eq. 9.64 mg, 31.36 µmol) dissolved in 200 µL of ABIC buffer 50 mM pH 7.4 was added. The reaction mixture was incubated for 24 h at 37 °C and monitored by LC-ESI-HRMS/MS.
SLMP53-1_M5 (1.00 eq., 2.1 mg, dissolved in 150 µL of ACN) was added to a L-lysine (2 eq.) solution in 50 mM ABIC buffer pH 7.4. Following incubation for 24 h at 37 °C a solution of cyanoborohydride (2 eq) was added. The mixture was analyzed by LC-ESI(+)-HRMS/MS.

As usually defined, the half-life is how long it takes for the measured level to halve. The low end stands for rapid decline, the high end for slow decline. Take `CCCn1c(Br)c(C[C@H]2CO[C@]3(c4ccccc4)c4ccccc4C(=O)N23)c2ccccc21` [Compound 13d, (3S, 9bR)-3-((2-bromo-1-propyl-1H-indol-3-yl)methyl)-9b-phenyl-2,3-dihydrooxazolo[2,3-a]isoindol-5(9bH)-one]: the “Intrinsic Clearance” value in series [1] (HLM, calculated from half-life (Equation 2)) was 5.5 mL/min/kg. For the same molecule, the clearance classification result in series [1] (HLM, classification after ref 32) is listed as “low clearance”. The molecule further had a half-life at 10 μM in series [1] (human, liver microsomes, pH 7.4, HLM 1 mg protein/mL, 10 μM, NADPH, 37 °C) of 1.53 h. The “products of addition of GSH with concomitant loss of bromine” value in series [2] is “no products compatible with the addition of GSH, and the concomitant loss of bromine, were detected”.
